Data published in patent US20230276836A1, “ORAL RETENTION COMPOSITION” (BIZEN CHEMICAL CO., LTD., priority 2020, published 2023).

Test: Reactivity index (RI) between compound and carrageenan, viscosity change (Test Examples 2, 10)
Type: physicochemical
Conditions: Test Example 2; uncoated compound, 10 ppm in 1 mass% carrageenan, vs methanol sample; 1.1<RI = viscosity decreased
Experimental: The measurement device, measurement, control sample, and D0 were the same as those in Test Example 1. An aqueous methanol solution containing a polyphenolic compound was prepared by dissolving the polyphenolic compound in an aqueous methanol solution (methanol concentration: 50 mass%) and diluted to 1 mg/mL in a measuring cylinder. 200 µL of this solution was added to 20 g of the same solution as the control sample (aqueous solution of 1 mass% carrageenan) and homogeneously mixed. The obtained solution was determined to be an uncoated sample. Additionally, a solution was prepared in the same manner as the uncoated sample, except that a 50% (v/v) aqueous methanol solution was used instead of the aqueous methanol solution containing a polyphenolic compound and determined to be a methanol sample. Evaluation Method: The progress distance (mm) of the control sample is D0. The progress distance (mm) of the uncoated sample is D1. The progress distance (mm) of the methanol sample is D1M. The reactivity index (RI) between a polyphenolic compound and carrageenan was calculated according to the following formula.
In this test system, the addition of an aqueous solution causes some decrease in viscosity due to a dilution effect. Thus, the determination method described above was used to detect the changes in viscosity due to the effect of a polyphenolic compound. Note that ±10% of the RI value was assumed to be within the margin of error (i.e., an RI value of 0.9 to 1.1 was assumed to be within the margin of error).
In the same manner as in Test Example 2, epigallocatechin gallate (polyphenolic compound), syringin and eleutheroside E (lignan compounds), and spermidine (basic substance) were prepared, and the effects of these substances on the viscosity of carrageenan were measured, and their reactivity was evaluated. Note that spermidine was dissolved in purified water, and the prepared aqueous solution was used as a sample.

Structure (SMILES)	RI
O=C(OC[C@H]1O[C@@H](OC(=O)c2cc(O)c(O)c(OC(=O)c3cc(O)c(O)c(O)c3)c2)[C@H](OC(=O)c2cc(O)c(O)c(OC(=O)c3cc(O)c(O)c(O)c3)c2)[C@@H](OC(=O)c2cc(O)c(O)c(OC(=O)c3cc(O)c(O)c(O)c3)c2)[C@@H]1OC(=O)c1cc(O)c(O)c(OC(=O)c2cc(O)c(O)c(O)c2)c1)c1cc(O)c(O)c(OC(=O)c2cc(O)c(O)c(O)c2)c1 [Comparative Example 4, Tannic Acid]	2.5
O=C(/C=C/c1ccc(O)c(O)c1)O[C@@H]1C[C@](O)(C(=O)O)C[C@@H](O)[C@H]1O [Comparative Example 3, Chlorogenic Acid]	4.1

More lines, now with the values ahead:

RI	Structure (SMILES)
3.5	Oc1ccc(C=Cc2cc(O)cc(O)c2)cc1 [Comparative Example 6, Resveratrol]
2.2	O=c1c(O)c(-c2ccc(O)c(O)c2)oc2cc(O)cc(O)c12 [Comparative Example 5, Quercetin]

Same assay, conditions: Test Example 10; uncoated compound, 10 ppm in 1 mass% carrageenan; spermidine dissolved in purified water

Structure (SMILES)	RI
COc1cc([C@H]2OC[C@@H]3[C@@H]2CO[C@H]3c2cc(OC)c(O[C@@H]3O[C@H](CO)[C@@H](O)[C@H](O)[C@H]3O)c(OC)c2)cc(OC)c1O[C@@H]1O[C@H](CO)[C@@H](O)[C@H](O)[C@H]1O [Comparative Example 14, Eleutheroside E]	2.1
COc1cc(/C=C/CO)cc(OC)c1O[C@@H]1O[C@H](CO)[C@@H](O)[C@H](O)[C@H]1O [Comparative Example 13, Syringin]	2.3
NCCCCNCCCN [Comparative Example 15, Spermidine]	1.5
O=C(O[C@@H]1Cc2c(O)cc(O)cc2O[C@@H]1c1cc(O)c(O)c(O)c1)c1cc(O)c(O)c(O)c1 [Comparative Example 12, Epigallocatechin Gallate]	4.4
